Molecules are shown by their SMILES.

For data set [1], the system named is human coronary artery smooth muscle cells (CASMC). Briefly: Vascular Smooth Muscle Cell (SMC) Antiproliferation Assay. It is filed as cell-based. Conditions: Homo sapiens; CASMC; viable cell count (Trypan Blue) ~68 hr after compound addition; nitrosylated (nitrosothiol) compound; read-out: IC 50 μM, Nitrosylated Compound (inhibition of proliferation of vascular smooth muscle cells). As for the experimental part: The cells used in this assay were-human coronary artery smooth-muscle cells (CASMC) supplied by Clonetics Corp. (San Diego, Calif.).
Stock solutions of the test compounds were prepared just prior to addition to the cells by dissolving in ethanol at a concentration of 1000 times the highest concentration to be assayed. This stock solution was diluted, as required, with ethanol to lower concentrations. […] Control cultures received 2 μL of ethanol per well (n=4). On the following morning, the cultures were examined microscopically and their condition recorded. On the third day after test compound addition (˜68 hr), the cultures were examined microscopically again and the viable cells counted with an hemacytometer following trypsinization with 0.25% trypsin-1 mM EDTA. Trypan Blue dye exclusion was used to discriminate between viable and dead cells.

By melting point is commonly meant the temperature, or range, at which the solid turns liquid. For the molecule `CC(C)(CNC(=O)CCCC(=O)O)SN=O` [Example 19b, 4-(N-(2-Methyl-2-(nitrosothio)propyl)carbamoyl)butanoic acid], the melting point lay in the range of 104 to 107 °C. Moreover, the IC50 in data set [1] turned out to be 50 µM.

`O=NSC1(C2OCCCO2)CCCCC1` [Example 46b, 2-(1-Nitrosomercaptocyclohex-1-yl)-1,3-dioxane] yielded a melting point of 34 to 36 °C. Moreover, in data set [1], the IC50 came out at 47 µM.

Source of the values: patent publication US20030203915A1, “Nitric oxide donors, compositions and methods of use related applications” (priority 2002, published 2003).
